# Literature values, collected in patent US20050267212A1, “Omega-3 fatty acids in the treatment of depression” (priority 1997, published 2005).
# Target: T1, cyclooxygenase-2 (Homo sapiens, UniProt P35354)
# T1 sequence (P35354 18-604): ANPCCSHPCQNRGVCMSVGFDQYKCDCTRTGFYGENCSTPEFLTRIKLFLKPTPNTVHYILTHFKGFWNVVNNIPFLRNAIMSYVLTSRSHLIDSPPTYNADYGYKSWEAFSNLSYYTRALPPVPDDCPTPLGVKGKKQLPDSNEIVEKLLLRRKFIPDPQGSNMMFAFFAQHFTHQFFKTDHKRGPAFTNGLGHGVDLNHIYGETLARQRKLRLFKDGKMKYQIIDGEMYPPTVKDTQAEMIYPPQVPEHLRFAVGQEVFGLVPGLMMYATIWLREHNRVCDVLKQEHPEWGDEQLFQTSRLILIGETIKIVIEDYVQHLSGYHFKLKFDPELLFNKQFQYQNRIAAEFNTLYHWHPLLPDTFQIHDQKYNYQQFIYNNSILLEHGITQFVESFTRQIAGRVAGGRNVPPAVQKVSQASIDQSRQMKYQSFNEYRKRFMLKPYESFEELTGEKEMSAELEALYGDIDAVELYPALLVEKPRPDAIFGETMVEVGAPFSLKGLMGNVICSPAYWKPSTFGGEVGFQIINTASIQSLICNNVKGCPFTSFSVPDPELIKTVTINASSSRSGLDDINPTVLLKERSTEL
# Details: cultured human mast cells
smiles,measurement,value
"CC/C=C\C/C=C\C/C=C\C/C=C\C/C=C\CCCC(=O)O [EPA, eicosapentanoic acid]",effect on cyclooxygenase-2,direct inhibition
